From patent publication US11730720B2, “ALK5 inhibitors” (THERAVANCE BIOPHARMA R&D IP, LLC, priority 2018, dated 2023)
pKi: −log10 of the molar value.

Assays:
[1] = target: T1, recombinant human ALK5 (TGF-βR1) protein (Homo sapiens, UniProt P36897); test: Biochemical ALK5 (TGF-βR1) assay to measure pKi (LANCE Ultra ULight kinase assay); details: apparent pKi, converted from pIC50 using the Cheng-Prusoff equation
T1 construct: purchased Life Technologies PR9075A
T1 sequence (P36897 34-503): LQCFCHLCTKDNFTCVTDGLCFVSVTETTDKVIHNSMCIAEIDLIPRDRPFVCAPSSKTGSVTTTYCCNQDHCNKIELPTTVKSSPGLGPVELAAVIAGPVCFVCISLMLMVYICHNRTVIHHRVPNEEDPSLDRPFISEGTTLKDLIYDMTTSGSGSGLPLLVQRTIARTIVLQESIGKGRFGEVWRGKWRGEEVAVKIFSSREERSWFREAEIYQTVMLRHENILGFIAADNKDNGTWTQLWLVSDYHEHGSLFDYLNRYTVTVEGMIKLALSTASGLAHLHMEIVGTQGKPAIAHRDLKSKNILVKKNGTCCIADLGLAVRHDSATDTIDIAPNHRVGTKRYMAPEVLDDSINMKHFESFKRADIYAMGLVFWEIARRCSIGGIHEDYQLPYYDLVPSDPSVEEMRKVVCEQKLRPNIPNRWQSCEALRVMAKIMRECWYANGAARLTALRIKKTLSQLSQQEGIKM
In short: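 TR-FRET kinase format: compound dose range 10 μM–25 pM equilibrated 60 min with human ALK5 and ULight-labelled topoisomerase 2α peptide in HEPES/MgCl2 buffer pH 7.5 with DTT. Reaction started with ATP (125 μM stock, 5× final), 60 min at 37° C, stopped with EDTA/Eu-anti-phospho antibody; pKi derived from pIC50 via Cheng-Prusoff.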

[2] = system: TGF-β-stimulated SMAD3 phosphorylation in BEAS-2B cells; test: Cellular ALK5 potency assay, inhibition of TGF-β stimulated pSMAD3 formation in BEAS-2B cells; format: cell-based; details: Homo sapiens, inhibition of TGF-β (10 ng/mL) stimulated pSMAD3 formation, 1 hour compound incubation, read-out: BEAS2B pIC50 (converted)
In short: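 Phospho-SMAD3 was quantified by AlphaLISA in lysates of human lung epithelial BEAS-2B cells. Compound was added 1 h (37 °C, HEPES/BSA-supplemented HBSS) before a 30 min challenge with 10 ng/mL TGF-β. Values are pIC50 relative to stimulated cells without compound.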

| Compound | pKi [1] | IC50 [2] [nM] |
| --- | --- | --- |
| CN1CCN(C2CCN(c3cnc4ccc(-c5c[nH]nc5-c5cc(Cl)ccc5F)cc4c3)CC2)CC1 [Compound 16-4, 6-[3-(5-chloro-2-fluoro-phenyl)-1H-pyrazol-4-yl]-3-[4-(4-methylpiperazin-1-yl)-1-piperidyl]quinoline] | 8.50 to 9.40 | 25.1 to 158 |
| CN1CC2CN(c3cnc4ccc(-c5c[nH]nc5-c5cc(Cl)ccc5F)nc4c3)CC21 (centres unmarked) [Compound 1-74, 2-[3-(5-chloro-2-fluoro-phenyl)-1H-pyrazol-4-yl]-7-(6-methyl-3,6-diazabicyclo[3.2.0]heptan-3-yl)-1,5-naphthyridine] | 8.50 to 9.40 | 25.1 to 158 |
| Fc1ccc(Cl)cc1-c1n[nH]cc1-c1ccc2ncc(-c3[nH]nc4c3CCNC4)cc2n1 [Compound 1-121, 2-[3-(5-chloro-2-fluoro-phenyl)-1H-pyrazol-4-yl]-7-(4,5,6,7-tetrahydro-2H-pyrazolo[3,4-c]pyridin-3-yl)-1,5-naphthyridine] | 9.50 to 10.40 | 25.1 to 158 |
| Fc1ccc(-c2n[nH]cc2-c2ccc3ncc(C4=CCNC4)cc3n2)cc1F [Compound 8-20, 2-[3-(3,4-difluorophenyl)-1H-pyrazol-4-yl]-7-(2,5-dihydro-1H-pyrrol-3-yl)-1,5-naphthyridine] | 8.50 to 9.40 | 25.1 to 158 |
| CN(C)C1(C)CN(c2cnc3ccc(-c4c[nH]nc4-c4cc(Cl)c(F)cc4F)nc3c2)C1 [Compound 6-20, 1-[6-[3-(5-chloro-2,4-difluoro-phenyl)-1H-pyrazol-4-yl]-1,5-naphthyridin-3-yl]-N,N,3-trimethyl-azetidin-3-amine] | 8.50 to 9.40 | 25.1 to 158 |
| CC(C)N1CCN(c2cnc3ccc(-c4c[nH]nc4-c4ccccc4F)nc3c2)CC1 [Compound 11-3, 2-[3-(2-fluorophenyl)-1H-pyrazol-4-yl]-7-(4-isopropylpiperazin-1-yl)-1,5-naphthyridine] | 7.50 to 8.40 | 25.1 to 158 |
| NCCn1cc(-c2cnc3ccc(-c4nc[nH]c4-c4cc(Cl)ccc4F)nc3c2)cn1 [Compound 2-20, 2-[4-[6-[5-(5-chloro-2-fluoro-phenyl)-1H-imidazol-4-yl]-1,5-naphthyridin-3-yl]pyrazol-1-yl]ethanamine] | 9.50 to 10.40 | 25.1 to 158 |
| CNCCn1cc(-c2cnc3ccc(-c4nn[nH]c4-c4cc(Cl)ccc4F)cc3c2)cn1 [Compound 18-1, 2-(4-(6-(5-(5-chloro-2-fluorophenyl)-1H-1,2,3-triazol-4-yl)quinolin-3-yl)-1H-pyrazol-1-yl)-N-methylethan-1-amine] | ≥ 10.50 | 25.1 to 158 |
| CC(C)N1CCN(CCNc2cnc3ccc(-c4c[nH]nc4-c4cc(Cl)ccc4F)cc3c2)CC1 [Compound 16-5, 6-(3-(5-chloro-2-fluorophenyl)-1H-pyrazol-4-yl)-N-(2-(4-isopropylpiperazin-1-yl)ethyl)quinolin-3-amine] | 8.50 to 9.40 | 25.1 to 158 |
| Fc1ccc(Cl)cc1-c1nc2ccccn2c1-c1ccc2ncc(N3CCNCC3)cc2n1 [Compound 3-2, 2-(2-(5-chloro-2-fluorophenyl)imidazo[1,2-a]pyridin-3-yl)-7-(piperazin-1-yl)-1,5-naphthyridine] | 9.50 to 10.40 | 200 to 1260 |
| Fc1ccc(Cl)cc1-c1[nH]cnc1-c1ccc2ncc(-c3cnc4n3CCN4)cc2c1 [Compound 17-9, 6-(5-(5-chloro-2-fluorophenyl)-1H-imidazol-4-yl)-3-(2,3-dihydro-1H-imidazo[1,2-a]imidazol-5-yl)quinoline] | 9.50 to 10.40 | 25.1 to 158 |
| CN1CCN(C2CCN(c3cnc4ccc(-c5nn[nH]c5-c5cc(Cl)ccc5F)cc4c3)CC2)CC1 [Compound 18-6, 6-[5-(5-chloro-2-fluoro-phenyl)-1H-triazol-4-yl]-3-[4-(4-methylpiperazin-1-yl)-1-piperidyl]quinoline] | 8.50 to 9.40 | 25.1 to 158 |
| NC1CN(c2cnc3ccc(-c4c[nH]nc4-c4cc(Cl)ccc4F)nc3c2)C1 [Compound 1-52, 1-[6-[3-(5-chloro-2-fluoro-phenyl)-1H-pyrazol-4-yl]-1,5-naphthyridin-3-yl]azetidin-3-amine] | 9.50 to 10.40 | ≤ 20 |
